Key:
Assay type in all cases: biochemical
[1] = target: PI3Kα (p110α/p85α)(h) (Homo sapiens, UniProt P42336); test: Assay for phosphatidylinositol 3-kinase alpha (PI3Kα) activity, PI3K-HTRF kit; details: TR-FRET; enzyme 0.3625 μg/ml, 10 μM PIP2, 10 μM ATP
[2] = target: PI3Kδ (p110δ/p85α)(h) (Homo sapiens, UniProt O00329); test: Assay for phosphatidylinositol 3-kinase delta (PI3Kδ) activity, PI3K-HTRF kit; details: TR-FRET; enzyme 0.725 μg/ml, 10 μM PIP2, 10 μM ATP
[3] = target: PI3Kγ (p120γ)(h) (Homo sapiens, UniProt P48736); test: Assay for phosphatidylinositol 3-kinase gamma (PI3Kγ) activity, PI3K-HTRF kit; details: TR-FRET; enzyme 1.45 μg/ml, 10 μM PIP2, 10 μM ATP
In short: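 Recombinant PI3Kγ (1.45 μg/ml final) preincubated ~10 min with compound, then reacted with 10 μM PIP2 and 10 μM ATP for 90 min at room temperature. PIP3 detected by HTRF (biotin-PIP3/Eu-PH domain/APC), 665/620 nm ratio after 6 h; IC50 from inhibition relative to controls.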

[4] = target: PI3K β (p110β/p85α)(h) (Homo sapiens, UniProt P42338); test: Assay for phosphatidylinositol 3-kinase beta (PI3Kβ) activity, PI3K-HTRF kit; details: TR-FRET; enzyme 0.725 μg/ml, 10 μM PIP2, 10 μM ATP
PI3K β (p110β/p85α)(h), sequence (P42338 whole entry): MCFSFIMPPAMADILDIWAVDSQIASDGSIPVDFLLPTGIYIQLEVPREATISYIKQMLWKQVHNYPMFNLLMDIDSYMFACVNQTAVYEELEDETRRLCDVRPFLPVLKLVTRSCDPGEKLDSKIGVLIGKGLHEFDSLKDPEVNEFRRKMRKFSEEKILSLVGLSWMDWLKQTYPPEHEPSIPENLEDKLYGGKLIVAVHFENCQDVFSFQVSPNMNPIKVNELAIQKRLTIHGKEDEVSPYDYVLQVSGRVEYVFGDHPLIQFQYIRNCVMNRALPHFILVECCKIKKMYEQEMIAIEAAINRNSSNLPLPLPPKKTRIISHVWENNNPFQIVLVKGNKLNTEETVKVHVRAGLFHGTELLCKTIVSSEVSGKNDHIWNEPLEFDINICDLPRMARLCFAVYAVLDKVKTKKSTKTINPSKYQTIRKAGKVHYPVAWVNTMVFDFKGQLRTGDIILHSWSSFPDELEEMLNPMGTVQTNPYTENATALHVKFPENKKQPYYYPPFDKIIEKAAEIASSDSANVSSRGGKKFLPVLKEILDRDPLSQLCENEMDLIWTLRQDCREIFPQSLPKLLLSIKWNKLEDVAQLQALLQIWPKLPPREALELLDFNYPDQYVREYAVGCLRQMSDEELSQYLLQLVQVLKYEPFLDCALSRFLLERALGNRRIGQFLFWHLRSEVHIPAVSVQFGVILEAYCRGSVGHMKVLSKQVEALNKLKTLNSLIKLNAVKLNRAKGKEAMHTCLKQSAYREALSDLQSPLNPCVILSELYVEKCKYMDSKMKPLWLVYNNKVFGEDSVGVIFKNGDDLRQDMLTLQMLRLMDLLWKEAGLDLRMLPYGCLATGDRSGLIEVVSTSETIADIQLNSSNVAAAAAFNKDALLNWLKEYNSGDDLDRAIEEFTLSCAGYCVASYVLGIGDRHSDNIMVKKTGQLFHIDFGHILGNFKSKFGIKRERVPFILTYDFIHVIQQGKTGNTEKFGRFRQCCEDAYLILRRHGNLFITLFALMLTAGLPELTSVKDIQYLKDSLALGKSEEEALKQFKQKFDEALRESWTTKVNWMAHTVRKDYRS
PI3K β (p110β/p85α)(h), sequence (P27986 whole entry partner): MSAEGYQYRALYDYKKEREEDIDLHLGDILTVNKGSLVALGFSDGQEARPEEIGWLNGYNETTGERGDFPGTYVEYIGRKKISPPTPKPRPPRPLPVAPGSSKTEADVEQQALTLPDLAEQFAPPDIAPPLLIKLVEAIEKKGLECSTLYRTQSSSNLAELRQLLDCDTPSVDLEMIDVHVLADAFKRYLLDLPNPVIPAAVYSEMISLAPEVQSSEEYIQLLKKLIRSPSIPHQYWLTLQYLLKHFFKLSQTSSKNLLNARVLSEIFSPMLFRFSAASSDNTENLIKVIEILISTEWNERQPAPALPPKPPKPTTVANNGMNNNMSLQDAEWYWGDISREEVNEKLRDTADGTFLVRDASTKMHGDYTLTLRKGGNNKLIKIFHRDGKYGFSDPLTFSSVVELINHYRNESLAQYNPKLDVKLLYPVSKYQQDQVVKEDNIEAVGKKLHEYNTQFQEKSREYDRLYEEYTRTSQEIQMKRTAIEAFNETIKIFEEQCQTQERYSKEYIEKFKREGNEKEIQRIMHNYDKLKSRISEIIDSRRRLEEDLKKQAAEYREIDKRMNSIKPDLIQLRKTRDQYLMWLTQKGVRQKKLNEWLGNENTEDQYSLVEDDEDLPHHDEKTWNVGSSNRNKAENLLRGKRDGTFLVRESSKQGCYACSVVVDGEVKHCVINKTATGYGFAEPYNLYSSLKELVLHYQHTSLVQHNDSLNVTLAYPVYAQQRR

PI3Kα (p110α/p85α)(h), sequence (P42336 whole entry): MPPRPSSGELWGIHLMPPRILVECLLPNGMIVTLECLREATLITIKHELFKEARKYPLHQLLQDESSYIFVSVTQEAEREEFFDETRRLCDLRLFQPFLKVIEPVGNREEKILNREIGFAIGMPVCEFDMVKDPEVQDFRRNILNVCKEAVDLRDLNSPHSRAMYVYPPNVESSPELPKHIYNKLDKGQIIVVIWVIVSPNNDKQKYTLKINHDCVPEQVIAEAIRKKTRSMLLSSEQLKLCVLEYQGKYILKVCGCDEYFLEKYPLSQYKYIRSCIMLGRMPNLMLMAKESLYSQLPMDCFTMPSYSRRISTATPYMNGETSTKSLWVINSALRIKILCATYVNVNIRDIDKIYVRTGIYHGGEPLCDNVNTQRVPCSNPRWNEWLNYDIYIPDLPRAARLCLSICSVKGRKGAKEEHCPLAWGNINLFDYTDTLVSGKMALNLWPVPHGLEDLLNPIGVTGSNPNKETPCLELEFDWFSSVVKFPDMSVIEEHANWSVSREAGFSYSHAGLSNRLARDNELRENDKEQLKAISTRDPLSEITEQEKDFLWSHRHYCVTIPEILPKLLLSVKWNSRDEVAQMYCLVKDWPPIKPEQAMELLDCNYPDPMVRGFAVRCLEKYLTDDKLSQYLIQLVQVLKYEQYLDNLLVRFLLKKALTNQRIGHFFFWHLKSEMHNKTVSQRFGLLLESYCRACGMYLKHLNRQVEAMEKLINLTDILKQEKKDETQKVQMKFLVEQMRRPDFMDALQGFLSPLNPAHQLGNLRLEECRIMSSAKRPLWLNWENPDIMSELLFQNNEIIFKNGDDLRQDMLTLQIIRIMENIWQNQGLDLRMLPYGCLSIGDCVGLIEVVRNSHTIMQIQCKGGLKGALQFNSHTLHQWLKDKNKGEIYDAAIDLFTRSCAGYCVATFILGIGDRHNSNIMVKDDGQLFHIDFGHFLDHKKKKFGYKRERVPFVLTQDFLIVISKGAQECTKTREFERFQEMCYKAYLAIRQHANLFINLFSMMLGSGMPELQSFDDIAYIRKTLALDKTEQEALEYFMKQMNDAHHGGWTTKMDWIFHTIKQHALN
PI3Kα (p110α/p85α)(h), sequence (P27986 whole entry partner): as the sequence (P27986 whole entry partner) above
PI3Kγ (p120γ)(h), sequence (P48736 whole entry, the tested form may be a part): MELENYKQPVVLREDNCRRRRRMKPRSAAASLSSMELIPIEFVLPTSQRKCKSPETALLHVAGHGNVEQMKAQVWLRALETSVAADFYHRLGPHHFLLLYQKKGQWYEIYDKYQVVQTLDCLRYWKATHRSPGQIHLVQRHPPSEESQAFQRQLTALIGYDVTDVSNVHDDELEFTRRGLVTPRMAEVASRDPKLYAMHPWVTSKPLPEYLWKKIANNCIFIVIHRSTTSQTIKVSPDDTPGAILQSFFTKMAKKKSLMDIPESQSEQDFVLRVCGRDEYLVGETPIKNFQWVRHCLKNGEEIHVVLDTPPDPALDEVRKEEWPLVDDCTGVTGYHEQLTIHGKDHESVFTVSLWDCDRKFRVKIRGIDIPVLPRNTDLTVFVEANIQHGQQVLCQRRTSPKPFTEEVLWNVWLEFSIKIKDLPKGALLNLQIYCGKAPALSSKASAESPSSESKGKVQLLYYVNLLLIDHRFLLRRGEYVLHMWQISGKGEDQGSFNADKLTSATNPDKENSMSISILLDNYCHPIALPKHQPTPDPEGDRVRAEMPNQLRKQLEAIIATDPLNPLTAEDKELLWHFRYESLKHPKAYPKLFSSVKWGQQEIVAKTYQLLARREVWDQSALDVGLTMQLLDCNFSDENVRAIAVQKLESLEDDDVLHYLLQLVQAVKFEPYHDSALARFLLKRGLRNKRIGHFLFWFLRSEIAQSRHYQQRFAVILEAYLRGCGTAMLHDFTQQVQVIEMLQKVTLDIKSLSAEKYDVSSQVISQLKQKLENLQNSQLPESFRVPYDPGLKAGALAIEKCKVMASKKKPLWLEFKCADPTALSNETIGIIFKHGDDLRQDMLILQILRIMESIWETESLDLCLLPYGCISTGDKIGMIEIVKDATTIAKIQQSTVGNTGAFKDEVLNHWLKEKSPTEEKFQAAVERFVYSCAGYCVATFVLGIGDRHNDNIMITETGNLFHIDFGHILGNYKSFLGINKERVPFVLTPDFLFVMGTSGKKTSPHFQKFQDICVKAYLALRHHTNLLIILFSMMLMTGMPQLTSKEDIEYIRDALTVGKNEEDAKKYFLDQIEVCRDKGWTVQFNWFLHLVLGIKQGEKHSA
PI3Kδ (p110δ/p85α)(h), sequence (O00329 whole entry): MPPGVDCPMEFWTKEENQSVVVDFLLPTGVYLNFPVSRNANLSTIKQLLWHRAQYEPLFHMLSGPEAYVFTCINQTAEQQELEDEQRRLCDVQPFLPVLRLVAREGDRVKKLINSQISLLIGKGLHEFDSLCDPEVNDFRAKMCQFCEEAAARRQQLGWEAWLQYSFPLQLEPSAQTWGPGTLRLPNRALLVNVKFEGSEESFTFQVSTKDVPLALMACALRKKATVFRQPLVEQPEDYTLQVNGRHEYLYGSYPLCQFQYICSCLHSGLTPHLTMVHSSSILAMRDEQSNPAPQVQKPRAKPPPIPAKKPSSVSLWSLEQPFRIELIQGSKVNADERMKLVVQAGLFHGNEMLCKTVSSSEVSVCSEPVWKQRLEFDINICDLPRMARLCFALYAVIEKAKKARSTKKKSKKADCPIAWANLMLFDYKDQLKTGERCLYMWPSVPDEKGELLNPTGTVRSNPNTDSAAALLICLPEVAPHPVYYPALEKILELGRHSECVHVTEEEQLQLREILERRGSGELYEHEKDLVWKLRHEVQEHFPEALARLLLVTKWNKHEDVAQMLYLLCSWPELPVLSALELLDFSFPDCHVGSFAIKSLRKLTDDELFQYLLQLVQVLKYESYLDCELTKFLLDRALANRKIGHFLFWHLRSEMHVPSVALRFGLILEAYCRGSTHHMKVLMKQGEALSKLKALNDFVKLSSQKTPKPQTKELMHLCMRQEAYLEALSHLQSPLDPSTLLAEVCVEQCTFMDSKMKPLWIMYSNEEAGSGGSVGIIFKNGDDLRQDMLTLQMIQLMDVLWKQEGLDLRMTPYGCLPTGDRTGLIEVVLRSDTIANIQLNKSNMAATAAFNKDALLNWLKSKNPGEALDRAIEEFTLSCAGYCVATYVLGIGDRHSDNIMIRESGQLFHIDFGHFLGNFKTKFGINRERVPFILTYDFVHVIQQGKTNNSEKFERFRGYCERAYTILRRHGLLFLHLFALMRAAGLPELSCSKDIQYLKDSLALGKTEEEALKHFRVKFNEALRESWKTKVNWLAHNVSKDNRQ
PI3Kδ (p110δ/p85α)(h), sequence (P27986 whole entry partner): as the sequence (P27986 whole entry partner) above

SMILES	IC50 [1]	IC50 [2]	IC50 [3]	IC50 [4]
N#Cc1ccc(C#Cc2cncc3cc(/C=C4\SC(=S)NC4=O)oc23)cc1 [Example 548, (Z)-4-([2-{(4-Oxo-2-thioxothiazolidin-5-ylidene)methyl}furo[3,2-c]pyridin-7-yl]ethynyl)benzonitrile]	8 nM	250 nM	25 nM	138 nM
COC(=O)c1cccc(C#Cc2cncc3cc(/C=C4\SC(=S)NC4=O)oc23)c1 [Example 569, (Z)-Methyl 3-([2-{(4-oxo-2-thioxothiazolidin-5-ylidene)methyl}furo[3,2-c]pyridin-7-yl]ethynyl)benzoate]	1 nM	493 nM	16 nM	5920 nM
CN(C)S(=O)(=O)c1ccc(C#Cc2cncc3cc(/C=C4\SC(=S)NC4=O)oc23)cc1 [Example 571, (Z)—N,N-Dimethyl-4-([2-{(4-oxo-2-thioxothiazolidin-5-ylidene)methyl}furo[3,2-c]pyridin-7-yl]ethynyl)benzenesulfonamide]	1 nM	78 nM	15 nM	2410 nM

Next, values leading:

IC50 [1]	IC50 [2]	IC50 [3]	IC50 [4]	SMILES
67 nM	> 10000 nM	78 nM	8620 nM	CC(C)c1ccccc1C#Cc1cncc2cc(/C=C3\SC(=S)NC3=O)oc12 [Example 554, (Z)-5-([7-{(2-Isopropylphenyl)ethynyl}furo[3,2-c]pyridin-2-yl]methylene)-2-thioxothiazolidin-4-one]
5 nM	120 nM	18 nM	3470 nM	O=C1NC(=S)S/C1=C\c1cc2cncc(C#Cc3ccsc3)c2o1 [Example 555, (Z)-5-[{7-(Thiophen-3-ylethynyl)furo[3,2-c]pyridin-2-yl}methylene]-2-thioxothiazolidin-4-one]
3 nM	41 nM	10 nM	468 nM	COC(=O)c1ccccc1C#Cc1cncc2cc(/C=C3\SC(=S)NC3=O)oc12 [Example 558, (Z)-Methyl 2-([2-{(4-oxo-2-thioxothiazolidin-5-ylidene)methyl}furo[3,2-c]pyridin-7-yl]ethynyl)benzoate]
